For the assay, the system named is panel of experts. The assay can be described thus: Organoleptic test of cooling action in confectioner's fondant, rated by a panel of experts. It is filed as in vivo. The conditions noted are these: scale from 1 (no cooling action) to 9 (extremely strong cooling action), 0.05 wt. % relative to the complete preparation. As to the method:
The compounds according to Examples 1 to 12 were tested for their organoleptic properties, in particular their cooling action. To this end, they were dissolved, in each case in a specific final concentration, in a mass prepared from sucrose (saccharose) and water (confectioner's fondant, supplier Nordzucker AG, Nordstemmen) and evaluated by a panel of experts. Sensory impressions were rated and the cooling action was assessed on a scale from 1 (no cooling action) to 9 (extremely strong cooling action). The results were convincing in every case.

`CNC(=O)C(=O)O[C@@H]1C[C@H](C)CC[C@H]1C(C)C` [Example 2, L-menthyl N-methyl oxamate] yielded a cooling action of 6.
